In patent publication US8338598B2, “Herbicidal pyrido[2,3-B]pyrazines and their use as herbicides” (Syngenta Limited, priority 2008, dated 2012):

Key:
Format in all cases: in vivo
Conditions in all cases: evaluated after 13 days, 10=total damage to plant, 0=no damage to plant
[1] = system: Amaranthus retroflexus; experiment: Example B2 herbicidal action, pre-emergence, pots in glasshouse
Procedure: (§1) Seeds of a variety of test species were sown in standard soil in pots. After cultivation for one day (pre-emergence) or after 8 days cultivation (post-emergence) under controlled conditions in a glasshouse (at 24/16° C., day/night; 14 hours light; 65% humidity), the plants were sprayed with an aqueous spray solution derived from the formulation of the technical active ingredient in acetone/water (50:50) solution containing 0.5% Tween 20 (polyoxyethelyene sorbitan monolaurate, CAS RN 9005-64-5). The test plants were then grown in a glasshouse under controlled conditions in a glasshouse (at 24/16° C., day/night; 14 hours light; 65% humidity) and watered twice daily. After 13 days, the test was evaluated (10=total damage to plant; 0=no damage to plant).

[2] = system: Setaria faberi; experiment: as above
Procedure: as §1

[3] = system: Solanum nigrum; experiment: as above
Procedure: as §1

[4] = system: Echinochloa crus-galli; experiment: as above
Procedure: as §1

[5] = system: Ipomea hederaceae; experiment: as above
Procedure: as §1

[6] = system: Amaranthus retroflexus; experiment: Example B2 herbicidal action, post-emergence, pots in glasshouse
Procedure: as §1

[7] = system: Setaria faberi; experiment: as above
Procedure: as §1

[8] = system: Solanum nigrum; experiment: as above
Procedure: as §1

[9] = system: Echinochloa crus-galli; experiment: as above
Procedure: as §1

[10] = system: Ipomea hederaceae; experiment: as above
Procedure: as §1

SMILES | AMARE, damage to plant ([1]; 1000 g/ha) | SETFA, damage to plant ([2]; 1000 g/ha) | SOLNI, damage to plant ([3]; 1000 g/ha) | ECHCG, damage to plant ([4]; 1000 g/ha) | IPOHE, damage to plant ([5]; 1000 g/ha) | AMARE, damage to plant ([6]; 1000 g/ha) | SETFA, damage to plant ([7]; 1000 g/ha) | SOLNI, damage to plant ([8]; 1000 g/ha) | ECHCG, damage to plant ([9]; 1000 g/ha) | IPOHE, damage to plant ([10]; 1000 g/ha) | AMARE, damage to plant ([1]; 250 g/ha) | SETFA, damage to plant ([2]; 250 g/ha) | SOLNI, damage to plant ([3]; 250 g/ha) | ECHCG, damage to plant ([4]; 250 g/ha) | IPOHE, damage to plant ([5]; 250 g/ha) | AMARE, damage to plant ([6]; 250 g/ha) | SETFA, damage to plant ([7]; 250 g/ha) | SOLNI, damage to plant ([8]; 250 g/ha) | ECHCG, damage to plant ([9]; 250 g/ha) | IPOHE, damage to plant ([10]; 250 g/ha)
O=c1c(-c2cnc(Cl)cc2Cl)c(O)c2nccnc2n1CC(F)F [Compound A19, 7-(4,6-Dichloro-pyrid-3-yl)-5-(2,2-difluoro-ethyl)-8-hydroxy-5H-pyrido[2,3-b]pyrazin-6-one] | 7 | 0 | 0 | 5 | 1 | 10 | 4 | 10 | 6 | 8 | – | – | – | – | – | – | – | – | – | –
CC(C)(C)C(=O)Oc1c(-c2cnc(Cl)cc2Cl)c(=O)n(CC(F)F)c2nccnc12 [Compound A20, 2,2-Dimethyl-propionic acid 7-(4,6-dichloro-pyrid-3-yl)-5-(2,2-difluoro-ethyl)-6-oxo-5,6-dihydro-pyrido[2,3-b]pyrazin-8-yl ester] | – | – | – | – | – | – | – | – | – | – | 1 | 0 | 1 | 3 | 0 | 10 | 2 | 10 | 7 | 10
O=c1c(-c2cc(Cl)ncc2Cl)c(O)c2nccnc2n1CC(F)F [Compound A21, 7-(2,5-Dichloro-pyrid-4-yl)-5-(2,2-difluoro-ethyl)-8-hydroxy-5H-pyrido[2,3-b]pyrazin-6-one] | 2 | 2 | 0 | 0 | 0 | 9 | 7 | 8 | 7 | 7 | – | – | – | – | – | – | – | – | – | –
CC(C)C(=O)Oc1c(-c2ccc(C(F)(F)F)nc2Cl)c(=O)n(CC(F)F)c2nccnc12 [Compound A30] | – | – | – | – | – | – | – | – | – | – | 1 | 0 | 1 | 3 | 0 | 9 | 4 | 6 | 1 | 6
CC(C)C(=O)Oc1c(-c2c(C(F)(F)F)nn(C)c2OC(F)F)c(=O)n(CC(F)F)c2nccnc12 [Compound B24, isobutyric acid 7-(5-difluoromethoxy-1-methyl-3-trifluoromethyl-1H-pyrazol-4-yl)-5-(2,2-difluoro-ethyl)-6-oxo-5,6-dihydro-pyrido[2,3-b]pyrazin-8-yl ester] | 10 | 7 | 8 | 8 | 5 | 9 | 8 | 10 | 8 | 8 | – | – | – | – | – | – | – | – | – | –
Cn1nc(C(F)(F)F)c(-c2c(O)c3nccnc3n(CC(F)F)c2=O)c1OC(F)F [Compound B25, 7-(5-difluoromethoxy-1-methyl-3-trifluoromethyl-1H-pyrazol-4-yl)-5-(2,2-difluoro-ethyl)-8-hydroxy-5H-pyrido[2,3-b]pyrazin-6-one] | 10 | 8 | 7 | 8 | 6 | 8 | 8 | 10 | 8 | 8 | – | – | – | – | – | – | – | – | – | –
Cn1nc(C(F)(F)F)c(-c2c(O)c3nccnc3[nH]c2=O)c1OC(F)F [Compound B26, 7-(5-difluoromethoxy-1-methyl-3-trifluoromethyl-1H-pyrazol-4-yl)-8-hydroxy-5H-pyrido[2,3-b]pyrazin-6-one] | 1 | 0 | 0 | 1 | 0 | 5 | 8 | 3 | 6 | 3 | – | – | – | – | – | – | – | – | – | –
